Results on eight compounds are retold here after ChEMBL document CHEMBL1141043, “Novel, selective indole-based ECE inhibitors: lead optimization via solid-phase and classical synthesis” (Bioorg Med Chem Lett, 2005).

In the first assay the target is T1, Endothelin-converting enzyme 1 (Homo sapiens, UniProt P42892).
T1 sequence (P42892 whole entry): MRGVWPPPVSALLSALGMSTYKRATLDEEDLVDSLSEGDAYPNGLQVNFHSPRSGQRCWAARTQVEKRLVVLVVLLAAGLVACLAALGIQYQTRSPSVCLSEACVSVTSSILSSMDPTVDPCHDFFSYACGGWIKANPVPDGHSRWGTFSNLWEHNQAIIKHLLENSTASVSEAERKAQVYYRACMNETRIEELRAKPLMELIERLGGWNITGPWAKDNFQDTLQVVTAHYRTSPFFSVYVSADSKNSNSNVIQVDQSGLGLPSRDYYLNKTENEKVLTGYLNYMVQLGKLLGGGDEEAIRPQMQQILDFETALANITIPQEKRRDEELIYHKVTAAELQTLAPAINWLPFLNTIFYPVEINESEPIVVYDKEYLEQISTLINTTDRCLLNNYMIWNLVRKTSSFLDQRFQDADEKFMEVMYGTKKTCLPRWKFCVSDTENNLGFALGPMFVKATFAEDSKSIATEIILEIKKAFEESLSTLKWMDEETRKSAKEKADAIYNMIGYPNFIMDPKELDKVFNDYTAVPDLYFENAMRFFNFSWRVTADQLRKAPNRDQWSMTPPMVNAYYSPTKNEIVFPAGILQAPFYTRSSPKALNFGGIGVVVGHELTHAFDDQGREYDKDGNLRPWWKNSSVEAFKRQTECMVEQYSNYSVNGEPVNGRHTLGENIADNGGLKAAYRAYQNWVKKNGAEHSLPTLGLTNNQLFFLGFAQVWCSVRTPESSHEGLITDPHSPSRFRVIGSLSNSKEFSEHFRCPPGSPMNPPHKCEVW
Briefly: Inhibitory concentration against endothelin converting enzyme 1 using bradykinin-derived substrate.
For orientation: IC50 means the concentration at which inhibition is half-maximal. Low values mean higher potency, high ones lower potency. `CC(C)(C)CC(=O)Nc1ccc2c(c1)cc(C(=O)Nc1ccn[nH]1)n2Cc1ccccc1F` displayed an IC50 greater than 10 µM. Regarding `CC(C)(C)CC(=O)Nc1ccc2c(c1)cc(CNc1ccccc1)n2Cc1ccccc1F`, the IC50 is greater than 10 µM. On the same count and under the same terms, the result for `CC(C)(C)CC(=O)Nc1ccc2c(c1)c(C(=O)Nc1ccccc1)cn2Cc1ccccc1F` reads greater than 10 µM; that for `CC(C)(C)CC(=O)Nc1ccc2c(c1)cc(-c1nc(-c3ccccc3)no1)n2Cc1ccccc1F`, greater than 10 µM.

The next assay addresses T1, Endothelin-converting enzyme 1. The assay can be described thus: Inhibitory concentration against endothelin converting enzyme 1 using big-ET-1 substrate in ELISA. A general note: In an ELISA, binding on a coated surface is turned into a signal by an enzyme label.
In turn, `C[S+]([O-])c1ccc(NC(=O)c2cccc(NC(=O)c3cc4cc(NC(=O)CC(C)(C)C)ccc4n3Cc3ccccc3F)c2)cc1` (stereo not drawn) yielded an IC50 of 0.066 µM. Still for that read-out and setting: the result for `CC(C)(C)CC(=O)Nc1ccc2c(c1)cc(C(=O)Nc1cccc(C(=O)Nc3ccc(S(C)(=O)=O)cc3)c1)n2Cc1ccccc1F` reads 0.12 µM; that for `CC(C)(C)CC(=O)Nc1ccc2c(c1)cc(C(=O)Nc1cccc(C(=O)Nc3ccc(S(N)(=O)=O)cc3)c1)n2Cc1ccccc1F`, 0.039 µM; that for `CNS(=O)(=O)c1ccc(NC(=O)c2cccc(NC(=O)c3cc4cc(NC(=O)CC(C)(C)C)ccc4n3Cc3ccccc3F)c2)cc1`, 0.15 µM.
